Structures are written as SMILES. Values after ≈ are worked out from the molar mass of the structure shown. Where two headings read alike, the source gives them in different places. Non-standard residues stand in square brackets, D forms with d. Residues, ends and D or L forms follow the SMILES beside them.

For one test, the system named is bEVs from E. coli ΔtolA. The conditions noted are these: for koff rate constant determined by SPR / Calculated kon rate constant: E. coli ΔtolA bEVs; for koff rate constant determined by SPR: 400 s dissociation phase, Figueira et al. 2017 formalism, 25°C; for koff rate constant determined by SPR / Kd: three parallels; for Calculated kon rate constant: calculated from KD and koff (KD=koff/kon); for Kd: read-out: Dissociation constant KD determined by SPR, E. coli ΔtolA bEVs on L1 chip, Biacore T200, 25°C, 10 mM HEPES, 150 mM NaCl, steady-state fit.

For the next test, the system named is E. coli ΔtolA JW0729-KC. It is filed as cell-based, Escherichia coli. The conditions noted are these: Mueller-Hinton broth, 256 to 2 μg/mL, 37°C, 18 h. As to the method: (§1) MIC for all test peptides was determined following EUCAST clinical standard ([Hasselmann, 2003]). Briefly, 3–4 colonies were picked by a cotton swab from freshly plated cultures on agar and resuspended in sterile saline solution. Turbidity of inoculum was adjusted to 0.5 McFarland standard units prior to ×100 dilution in Mueller-Hinton broth. Antimicrobial peptides were dissolved in the broth at the stock concentration of 512 μg/mL. […] Positive control of bacterial culture diluted with broth and negative control of blank broth were included for each bacterial strain. The MICs were determined after incubation of the plates at 37°C for 18 h and red as the concentration of antimicrobial peptide at the next to the last well where bacterial growth was detected.

For another test, the system named is P. aeruginosa K34-7. It is filed as cell-based, Pseudomonas aeruginosa. How it is done:
as §1

The conditions of test [1]: strain not stated; ref Junkes et al., 2008; Bagheri, 2010; Gopal et al., 2012; Finger et al., 2015; Rainsford et al., 2022; Jakubec et al., 2023; cited from earlier work.
For test [2], the system named is liposomes prepared from E. coli ΔtolA lipid isolate. Nature of the test: SPR interaction with immobilized liposomes. The conditions noted are these: for koff rate constant determined by SPR / Calculated kon rate constant: Liposomes from E. coli ΔtolA lipid isolate; for koff rate constant determined by SPR: 400 s dissociation phase, Figueira et al. 2017 formalism, 25°C; for koff rate constant determined by SPR / Kd: three parallels; for Calculated kon rate constant: calculated from KD and koff (KD=koff/kon); for Kd: read-out: Dissociation constant KD determined by SPR, Liposomes from E. coli ΔtolA lipid isolate on L1 chip, Biacore T200, 25°C, 10 mM HEPES, 150 mM NaCl, steady-state fit.
From the text: (§2) By this, the dissociation constant KD and the disassociation rate koff were obtained. These constants allowed us to calculate kon rate, using Eq. 4.

Another test deals with bEVs from A. baumannii. Nature of the test: SPR interaction with immobilized bEVs. The conditions noted are these: for koff rate constant determined by SPR / Calculated kon rate constant: A. baumannii bEVs; for koff rate constant determined by SPR: 400 s dissociation phase, Figueira et al. 2017 formalism, 25°C; for koff rate constant determined by SPR / Kd: three parallels; for Kd: read-out: Dissociation constant KD determined by SPR, A. baumannii bEVs on L1 chip, Biacore T200, 25°C, 10 mM HEPES, 150 mM NaCl, steady-state fit; for Calculated kon rate constant: calculated from KD and koff (KD=koff/kon).

Another test relates to A. baumannii K47-42. It is filed as cell-based, Acinetobacter baumannii. As to the method:
as §1

Another test has as its system K. pneumoniae K47-25. It is filed as cell-based, Klebsiella pneumoniae. How it is done:
as §1

The subject of a further test is bEVs from P. aeruginosa. Nature of the test: SPR interaction with immobilized bEVs. The conditions noted are these: for koff rate constant determined by SPR / Calculated kon rate constant: P. aeruginosa bEVs; for koff rate constant determined by SPR: 400 s dissociation phase, Figueira et al. 2017 formalism, 25°C; for koff rate constant determined by SPR / Kd: three parallels; for Kd: read-out: Dissociation constant KD determined by SPR, P. aeruginosa bEVs on L1 chip, Biacore T200, 25°C, 10 mM HEPES, 150 mM NaCl, steady-state fit; for Calculated kon rate constant: calculated from KD and koff (KD=koff/kon).

The test system of the next test is bEVs from K. pneumoniae. Nature of the test: SPR interaction with immobilized bEVs. Conditions: for koff rate constant determined by SPR / Calculated kon rate constant: K. pneumoniae bEVs; for koff rate constant determined by SPR: 400 s dissociation phase, Figueira et al. 2017 formalism, 25°C; for koff rate constant determined by SPR / Kd: three parallels; for Kd: read-out: Dissociation constant KD determined by SPR, K. pneumoniae bEVs on L1 chip, Biacore T200, 25°C, 10 mM HEPES, 150 mM NaCl, steady-state fit; for Calculated kon rate constant: calculated from KD and koff (KD=koff/kon).

The mark [3] stands for this setting: P. aeruginosa K34-7, clinical multi-resistant, Mueller-Hinton broth, 256 to 2 μg/mL, 37°C, 18 h.
[4] abbreviates: A. baumannii K47-42, clinical multi-resistant, Mueller-Hinton broth, 256 to 2 μg/mL, 37°C, 18 h.
Setting [5] is: K. pneumoniae K47-25, clinical multi-resistant, Mueller-Hinton broth, 256 to 2 μg/mL, 37°C, 18 h.

From the text for bEVs from A. baumannii: as §2
From the text for bEVs from E. coli ΔtolA: as §2
From the text for bEVs from K. pneumoniae: as §2
From the text for bEVs from P. aeruginosa: as §2

With `CC(C)C[C@@H]1NC(=O)[C@@H](CCCNC(=N)N)NC(=O)[C@H](CCCCN)NC(=O)[C@H](CC(N)=O)NC(=O)[C@@H](Cc2c[nH]c3ccccc23)NC(=O)[C@H](Cc2c[nH]c3ccccc23)NC1=O` [c-LWwNKr, reference compound] (cyclo(LW[dW]NK[dR])), the “koff rate constant determined by SPR” value in the test with bEVs from E. coli ΔtolA came out at 1.42 ± 0.27 s⁻¹; in test [2] it was 1.67 ± 0.45 s⁻¹; in the test with bEVs from A. baumannii it was 1.72 ± 0.45 s⁻¹; with bEVs from P. aeruginosa, 1.78 ± 0.54 s⁻¹; with bEVs from K. pneumoniae, 1.75 ± 0.55 s⁻¹. Also, the results for the “Calculated kon rate constant” value (in the test on bEVs from E. coli ΔtolA; in test [2]) were 3000 ± 1000 M⁻¹ s⁻¹ and 2000 ± 1000 M⁻¹ s⁻¹, respectively. Further, the dissociation constant (Kd) in the test on bEVs from E. coli ΔtolA was found to be 406 ± 38.1 µM; in test [2], 966 ± 170 µM; on bEVs from A. baumannii it was 858 ± 61.4 µM; on bEVs from P. aeruginosa, 1040 ± 270 µM; on bEVs from K. pneumoniae, 1080 ± 49 µM. The minimal inhibitory concentration (MIC) in the test on E. coli ΔtolA JW0729-KC, against P. aeruginosa K34-7 (setting [3]), against A. baumannii K47-42 (setting [4]) and against K. pneumoniae K47-25 (setting [5]) was greater than 256 mg/L in each case. Also, the “MIC (without antimicrobial activity)” value in test [1] was greater than 256 mg/L.
Turning to `NCCCC[C@@H]1NC(=O)[C@H](CCCCN)NC(=O)[C@H](Cc2c[nH]c3ccccc23)NC(=O)[C@H](Cc2c[nH]c3ccccc23)NC(=O)[C@H](Cc2c[nH]c3ccccc23)NC(=O)[C@H](CCCCN)NC1=O` [c-WWWKKK] (cyclo(WWWKKK)), the “koff rate constant determined by SPR” value in the test on bEVs from E. coli ΔtolA worked out at 0.62 ± 0.05 s⁻¹; in test [2], 0.21 ± 0.01 s⁻¹; in the test on bEVs from A. baumannii, 0.63 ± 0.12 s⁻¹; in the test with bEVs from P. aeruginosa it was 0.62 ± 0.07 s⁻¹; in the test with bEVs from K. pneumoniae, 0.37 ± 0.03 s⁻¹. Further, the “Calculated kon rate constant” value in the test on bEVs from E. coli ΔtolA is 11000 ± 1000 M⁻¹ s⁻¹; in [2], 7000 ± 1000 M⁻¹ s⁻¹; in the test with bEVs from A. baumannii, 6000 ± 2000 M⁻¹ s⁻¹; with bEVs from P. aeruginosa, 6000 ± 1000 M⁻¹ s⁻¹; in the test on bEVs from K. pneumoniae, 18000 ± 1000 M⁻¹ s⁻¹. The dissociation constant (Kd) worked out at 56.5 ± 1 µM in the test on bEVs from E. coli ΔtolA; 28.3 ± 4.2 µM in [2]; 100 ± 13.1 µM at bEVs from A. baumannii; 100 ± 4.1 µM on bEVs from P. aeruginosa; 21 ± 0.7 µM at bEVs from K. pneumoniae. For the same compound, the MIC in the test on E. coli ΔtolA JW0729-KC was 4 mg/L (≈ 4.24 µM); against A. baumannii K47-42 (K47-42, 18 h), greater than 256 mg/L; in the test on K. pneumoniae K47-25 (K47-25, 18 h), greater than 256 mg/L.
Consider `NCCCC[C@@H]1NC(=O)[C@H](Cc2c[nH]c3ccccc23)NC(=O)[C@H](CCCCN)NC(=O)[C@H](Cc2c[nH]c3ccccc23)NC(=O)[C@H](CCCCN)NC(=O)[C@H](Cc2c[nH]c3ccccc23)NC1=O` [c-WKWKWK] (cyclo(WKWKWK)), for which the “koff rate constant determined by SPR” value in the test with bEVs from E. coli ΔtolA worked out at 1.42 ± 0.16 s⁻¹; in test [2], 0.95 ± 0.20 s⁻¹; in the test with bEVs from A. baumannii it was 0.82 ± 0.11 s⁻¹; in the test with bEVs from P. aeruginosa, 1.52 ± 0.37 s⁻¹; in the test with bEVs from K. pneumoniae, 1.51 ± 0.54 s⁻¹. The “Calculated kon rate constant” value in the test on bEVs from E. coli ΔtolA is 4000 ± 1000 M⁻¹ s⁻¹; in [2], 4000 ± 1000 M⁻¹ s⁻¹; in the test on bEVs from A. baumannii, 2000 ± 1000 M⁻¹ s⁻¹; in the test on bEVs from P. aeruginosa, 2000 ± 1000 M⁻¹ s⁻¹; in the test on bEVs from K. pneumoniae, 2000 ± 1000 M⁻¹ s⁻¹. Further, the Kd was 381 ± 22.6 µM in the test with bEVs from E. coli ΔtolA; 244 ± 39.5 µM in [2]; 389 ± 32.5 µM on bEVs from A. baumannii; 749 ± 117 µM at bEVs from P. aeruginosa; 694 ± 37.3 µM on bEVs from K. pneumoniae. Further, the minimal inhibitory concentration (MIC) with E. coli ΔtolA JW0729-KC was 256 mg/L (≈ 271 µM); against P. aeruginosa K34-7 (setting [3]), greater than 256 mg/L; in the test with A. baumannii K47-42 (setting [4]) it was greater than 256 mg/L; in the test on K. pneumoniae K47-25 (setting [5]), greater than 256 mg/L.
As for `N=C(N)NCCC[C@@H]1NC(=O)[C@H](CCCNC(=N)N)NC(=O)[C@H](Cc2c[nH]c3ccccc23)NC(=O)[C@H](Cc2c[nH]c3ccccc23)NC(=O)[C@H](Cc2c[nH]c3ccccc23)NC(=O)[C@H](CCCNC(=N)N)NC1=O` [c-WWWRRR] (cyclo(WWWRRR)), the “koff rate constant determined by SPR” value is 0.18 ± 0.02 s⁻¹ with bEVs from E. coli ΔtolA; 0.51 ± 0.08 s⁻¹ in [2]; 0.40 ± 0.06 s⁻¹ in the test with bEVs from A. baumannii; 0.37 ± 0.04 s⁻¹ with bEVs from P. aeruginosa; 0.28 ± 0.01 s⁻¹ in the test on bEVs from K. pneumoniae. Also, the “Calculated kon rate constant” value in the test on bEVs from E. coli ΔtolA is 7000 ± 1000 M⁻¹ s⁻¹; in [2], 11000 ± 1000 M⁻¹ s⁻¹; in the test on bEVs from A. baumannii, 8000 ± 2000 M⁻¹ s⁻¹; in the test with bEVs from P. aeruginosa, 6000 ± 1000 M⁻¹ s⁻¹; in the test on bEVs from K. pneumoniae, 8000 ± 1000 M⁻¹ s⁻¹. Besides, the equilibrium dissociation constant (Kd) with bEVs from E. coli ΔtolA worked out at 27 ± 1.6 µM; in test [2], 47.8 ± 5.2 µM; at bEVs from A. baumannii, 48.7 ± 2.7 µM; at bEVs from P. aeruginosa, 59 ± 2.6 µM; at bEVs from K. pneumoniae, 35.8 ± 1.3 µM. The MIC was 4 mg/L (≈ 3.89 µM) with E. coli ΔtolA JW0729-KC; greater than 256 mg/L against A. baumannii K47-42 (K47-42, 18 h); 256 mg/L (≈ 249 µM) in the test on K. pneumoniae K47-25 (K47-25, 18 h).
`N=C(N)NCCC[C@@H]1NC(=O)[C@H](Cc2c[nH]c3ccccc23)NC(=O)[C@H](CCCNC(=N)N)NC(=O)[C@H](Cc2c[nH]c3ccccc23)NC(=O)[C@H](CCCNC(=N)N)NC(=O)[C@H](Cc2c[nH]c3ccccc23)NC1=O` [c-WRWRWR] (cyclo(WRWRWR)): the minimal inhibitory concentration (MIC) in the test with E. coli ΔtolA JW0729-KC was 128 mg/L (≈ 125 µM); with P. aeruginosa K34-7 (K34-7, 18 h), greater than 256 mg/L; against A. baumannii K47-42 (K47-42, 18 h), greater than 256 mg/L; with K. pneumoniae K47-25 (K47-25, 18 h), greater than 256 mg/L.

The values are drawn from publication PMC10751319, “Bacterial extracellular vesicles: towards realistic models for bacterial membranes in molecular interaction studies by surface plasmon resonance” (Frontiers in Molecular Biosciences, 2023).
